Test results from US20220257552A1, “METHODS OF PRESCREENING AND TREATING BREAST CANCERS WITH SELECTIVE ANDROGEN RECEPTOR MODULATORS” (priority 2021, published 2022).

Experiments:
[1] = test system: metastatic or locally advanced ER+/AR+ breast cancer; assay: Phase 2 trial G200802, 9 mg or 18 mg daily, ER+/AR+ breast cancer; assay type: in vivo, human; settings: for ORR / Best overall objective tumor response, CR (patients) / Best overall objective tumor response, PR (patients): post-hoc; for Best overall objective tumor response, CR (patients) / Best overall objective tumor response, PR (patients): all evaluable patients
Description: Each dose arm was treated independently, and each assessed for efficacy using Simon's two-stage (optimal) design (Simon R. Optimal two-stage designs for Phase 2 clinical trials. Controlled Clinical Trials 1989; 10: 1-10). Subjects were randomized in a 1:1 fashion to one of the two dose arms.
Randomization was stratified by subjects presenting with bone only metastases and all other subjects, and further by setting of immediately preceding therapy (adjuvant setting or metastatic setting) in order to balance the proportion of subjects with these presenting features in each dose arm.
Thirty-six to eighty-eight (36-88) subjects with centrally confirmed AR+ who received at least one dose of study drug (evaluable subjects) were needed for primary efficacy analysis purposes and were a subset of the full analysis set (FAS). Fifty patients in the 9 mg cohort and 52 patients in the 18 mg cohort met these criteria. […] Other statistical parameters that were part of the sample size calculation are α=0.025 (one-sided) and power=90%. The first stage in each study arm was assessed among the first 18 evaluable subjects. Greater than 3/18 subjects achieved CB (defined as CR, PR, or SD) at week 24, and both arms proceeded to the second stage of recruitment up to a total of 44 evaluable subjects per arm. Otherwise, the arm would have been discontinued for lack of efficacy. Statistical significance, i.e., rejection of the null hypothesis of an unacceptably low CBR of ≤10% in favor of the alternative hypothesis that indicated the higher rate, ≥30%, was more likely, would be declared if at least 9/44 subjects achieved CB at week 24 in that arm.
These patients on the study had measurable disease at baseline and an AR staining prior to entry into the study. The radiographic imaging in this patient population was done every 12 weeks (2.7 months). Therefore, the minimum radiographic progression free survival (rPFS) that could be determined is approximately 2.7 months. 90% of the patients in the study had previously received non-endocrine based chemotherapy. The patients in this study had failed an average of 2 prior treatment lines for metastatic disease (range=0-5). FIG. 43 provides a scatterplot for the patients in this study with regard to the correlation between % AR-positive staining at baseline (% AR staining) and rPFS. […] However, in patients with greater than or equal to 40% AR-positive staining, the rPFS was delayed to variable extents (scatter plot pattern) in many to most cases. A positive correlation between rPFS and % AR staining was seen above the threshold of 40% AR staining. To explore this positive correlation further, several subgroups of AR % staining were defined and analyzed for metrics of efficacy, as shown in Table 14.

[2] = test system: HCC-38 triple negative breast cancer cells; assay: SRB cell viability, HCC-38 cells infected with AR adenovirus; assay type: cell-based; settings: 3 days
Description: The SRB assay was used to determine cell number during cytotoxocity experiments. The following protocol was used: • 1. Cells were detached with 0.25% trypsin. • 2. Experimental cultures were cultured in 96-well microtiter plates (200 μL growth medium per well; 1,000-200,000 cells per well). • 3. Cultures were fixed with 50 μL 50% TCA (4° C.). (see cell fixation protocol for details). • 4. Fixed cells were stained with 50 μL 0.4% (wt/vol) SRB in 1% acetic acid for 10 minutes. • 5. SRB was removed and the cultures were quickly* rinsed 5 times with 1% acetic acid to remove unbound dye.** • 6. Cultures were air-dried overnight until there was no visible moisture. • 7. The cellular protein-bound SRB was dissolved with 200 μL unbuffered Tris base (10 mM, pH 10.5) for 30 minutes on a rocking platform shaker. • 8. Absorbance was read at 540 nm. * quickly performing rinsing process was to prevent desorption of protein-bound SRB ** completely removed residual wash solution by sharply flicking plates over sink.
The following protocol was used for fixing cells: • a. 50 μL of 50% TCA (4° C.) was gently layered on the top of growth medium in each well to make a final TCA concentration of 10%. • b. Cultures were incubated at 4° C. for 1 hour. • c. Cultures were washed 5 times with tap water to remove TCA, growth medium, low-molecular-weight metabolites, and serum protein. • d. […]

GR = target: T1, GR (Rattus norvegicus, UniProt P06536); assay: GR transactivation in HEK-293 cells; assay type: cell-based
T1 construct: expressed in transfected cells
T1 sequence (P06536 whole entry): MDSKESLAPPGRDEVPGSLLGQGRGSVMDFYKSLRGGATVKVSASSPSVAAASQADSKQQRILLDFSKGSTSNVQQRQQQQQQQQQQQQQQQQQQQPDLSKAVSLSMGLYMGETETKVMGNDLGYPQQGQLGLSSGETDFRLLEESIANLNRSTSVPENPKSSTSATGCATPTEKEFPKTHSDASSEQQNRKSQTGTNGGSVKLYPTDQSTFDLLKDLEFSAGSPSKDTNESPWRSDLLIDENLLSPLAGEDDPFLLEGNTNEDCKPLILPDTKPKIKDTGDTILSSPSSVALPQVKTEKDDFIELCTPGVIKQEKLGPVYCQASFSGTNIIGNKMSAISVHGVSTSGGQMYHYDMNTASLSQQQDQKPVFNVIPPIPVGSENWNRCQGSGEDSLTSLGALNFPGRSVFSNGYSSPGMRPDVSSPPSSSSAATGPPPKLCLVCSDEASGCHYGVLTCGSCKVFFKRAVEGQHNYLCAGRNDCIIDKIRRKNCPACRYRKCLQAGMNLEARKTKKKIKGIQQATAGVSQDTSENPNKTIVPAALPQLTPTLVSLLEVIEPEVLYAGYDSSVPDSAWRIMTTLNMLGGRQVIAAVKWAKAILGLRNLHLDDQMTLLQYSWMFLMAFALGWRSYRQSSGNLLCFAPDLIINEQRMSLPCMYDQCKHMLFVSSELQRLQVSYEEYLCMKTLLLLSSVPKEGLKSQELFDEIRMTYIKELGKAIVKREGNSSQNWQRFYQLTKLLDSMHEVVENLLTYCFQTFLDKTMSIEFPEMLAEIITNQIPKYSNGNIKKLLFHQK
Description: Rat GR, MR, PR, ER-α and ER-β were individually cloned into a pCR3.1 vector backbone. Sequencing was performed to verify the absence of any mutations. HEK-293 cells were plated at 90,000 cells per well of a 24 well plate in Dulbecco's Minimal Essential Media supplemented with 5% charcoal-stripped FBS. […] Luciferase assays were performed 48 h after transfection. Transcriptional activation values are represented as firefly luciferase normalized to renilla luciferase.

AR-LBD = AR-LBD (Homo sapiens, UniProt P10275); assay: Competitive radioligand binding with [3H]MIB; settings: DHT = 1.0
AR-LBD, sequence (P10275 669-900 limits assumed): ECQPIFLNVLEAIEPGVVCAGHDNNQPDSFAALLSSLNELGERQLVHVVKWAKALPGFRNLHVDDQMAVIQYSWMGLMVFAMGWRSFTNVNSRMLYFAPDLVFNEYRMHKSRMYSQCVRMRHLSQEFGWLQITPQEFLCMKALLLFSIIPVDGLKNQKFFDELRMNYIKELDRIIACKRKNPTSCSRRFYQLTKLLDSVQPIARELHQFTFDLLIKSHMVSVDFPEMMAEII

MCF-7-AR tumors = assay: Affymetrix microarray of MCF-7-AR tumors; assay type: in vivo, mice; settings: Table 9
Description: Microarray Analysis was performed on RNA from MDA-MB-231-AR and MCF-7-AR tumors in order to identify and compare changes in gene expression in ER-negative (MDA-MB-231-AR; triple negative) an ER-positive (MCF-7-AR; triple positive) breast cancer tumors treated with a compound of Formula VIII (30 mg/kg/day p.o. for 4 weeks). Affymetrix analysis of the xenografts was done on pooled samples of the xenografts. The analysis included ˜70,000 sequences with ˜30,000 genes and variations thereof represented, as well as microRNA's. RNA was isolated and expression of genes was evaluated using microarray (Affymetrix Human Gene ST 2.0 array). Expression of genes in compound of Formula VIII-treated samples was compared with the expression in vehicle-treated samples.

**Q.** `C[C@](O)(COc1ccc(C#N)cc1)C(=O)Nc1ccc(C#N)c(C(F)(F)F)c1` [Formula IX, (S)—N-(4-Cyano-3-(trifluoromethyl)phenyl)-3-(4-cyanophenoxy)-2-hydroxy-2-methylpropanamide] was tested. Which “responders with duration of response ≥6 months” value ([1]; 9 mg) did it give?
**A.** The value was 67%.

**Q.** And the “responders with duration of response ≥12 months” value ([1]; 9 mg)?
**A.** The value was 25%.

**Q.** What about the “Quality of life assessments” value ([1]; 9 mg and 18 mg cohorts, p=0.002) of the same compound?
**A.** Its value is “significant improvement from baseline”.

**Q.** And the tolerability ([1]; 9 mg and 18 mg doses)?
**A.** The tolerability was “well tolerated”.

**Q.** And the “patients with complete response” value ([1]; 9 mg arm, 3 patients who failed palbociclib)?
**A.** The value was 33%.

**Q.** And the “Median duration of clinical benefit” value ([1]; 9 mg group)?
**A.** Its value is “not reached”.

**Q.** And the rPFS ([1]; 9 mg, AR nuclei staining <40%)?
**A.** The rPFS was 2.72 months.

**Q.** What about the ORR ([1]; 9 mg, AR nuclei staining <40% (0/22)) of the same compound?
**A.** The ORR was 0%.

**Q.** And the rPFS ([1]; 9 mg, AR nuclei staining ≥40%)?
**A.** The rPFS was 5.47 months.

**Q.** And the ORR ([1]; 9 mg, AR nuclei staining ≥40% (12/25))?
**A.** Its ORR is 48%.

**Q.** And the “Best overall objective tumor response, CR (patients)” value ([1]; 9 mg)?
**A.** The value was 3.

**Q.** What about the “Best overall objective tumor response, PR (patients)” value ([1]; 9 mg) of the same compound?
**A.** Its value is 8.

**Q.** What about the “median duration of response” value ([1]; 9 mg, patients with objective tumor response, range 2.73 to >27.83) of the same compound?
**A.** Its value is 8.18 months.

**Q.** What about the response rate ([1]; 18 mg arm, 6 patients who failed palbociclib) of the same compound?
**A.** The response rate was 33%.

**Q.** What about the “Median duration of clinical benefit” value ([1]; 18 mg group (11 months-16.5 months)) of the same compound?
**A.** Its value is 14.1 months.

**Q.** What about the “Best overall objective tumor response, CR (patients)” value ([1]; 18 mg) of the same compound?
**A.** The value was 1.

**Q.** And the “Best overall objective tumor response, PR (patients)” value ([1]; 18 mg)?
**A.** The value was 5.

**Q.** And the “objective response in ≥60% AR subgroup” value ([1]; progressed on estrogen blocking agents and CDK 4/6 inhibitor, 4 patients)?
**A.** Its value is 75%.

**Q.** And the “patients with an objective response” value ([1]; progressed on estrogen blocking agents and CDK 4/6 inhibitor, AR ≥40% (7 patients))?
**A.** Its value is 3 patients.

**Q.** And the cell growth [2]?
**A.** Its cell growth is “inhibited”.

**Q.** Which results are given for `C[C@](O)(COc1ccc(C#N)cc1)C(=O)Nc1ccc(C#N)c(Cl)c1` [Formula VIII, (S)—N-(3-chloro-4-cyanophenyl)-3-(4-cyanophenoxy)-2-hydroxy-2-methylpropanamide]?
**A.** GR-mediated transactivation, agonist mode (GR; all tested concentrations): did not induce; dexamethasone-induced GR-mediated transactivation, antagonist mode (GR; co-incubation): failed to alter; relative binding affinities (RBAs) for AR (AR-LBD): 0.314; AHR expression (MCF-7-AR tumors): Increased; CDT1 expression (MCF-7-AR tumors): Decreased; Catalase expression (MCF-7-AR tumors): Increased; EHMT1 expression (MCF-7-AR tumors): Increased; ER-α expression (MCF-7-AR tumors): Decreased; ERCC2 expression (MCF-7-AR tumors): Decreased; FACGD2 expression (MCF-7-AR tumors): Decreased; IRS1 expression (MCF-7-AR tumors): Decreased; KLK3 expression (MCF-7-AR tumors): Increased; MTR expression (MCF-7-AR tumors): Decreased; NPAS2 expression (MCF-7-AR tumors): Increased; PON2 expression (MCF-7-AR tumors): Increased; PR expression (MCF-7-AR tumors): Decreased; TIMP3 expression (MCF-7-AR tumors): Increased; XRCC1 expression (MCF-7-AR tumors): Decreased
